{
  "source": "BindingDB's records for doi:10.1124/mol.63.6.1223",
  "about": "(Case Western Reserve University, 2003)",
  "key": {"[1]": {"target": "Sodium-dependent dopamine transporter (Rattus norvegicus, UniProt P23977)", "sequence (P23977 whole entry)": "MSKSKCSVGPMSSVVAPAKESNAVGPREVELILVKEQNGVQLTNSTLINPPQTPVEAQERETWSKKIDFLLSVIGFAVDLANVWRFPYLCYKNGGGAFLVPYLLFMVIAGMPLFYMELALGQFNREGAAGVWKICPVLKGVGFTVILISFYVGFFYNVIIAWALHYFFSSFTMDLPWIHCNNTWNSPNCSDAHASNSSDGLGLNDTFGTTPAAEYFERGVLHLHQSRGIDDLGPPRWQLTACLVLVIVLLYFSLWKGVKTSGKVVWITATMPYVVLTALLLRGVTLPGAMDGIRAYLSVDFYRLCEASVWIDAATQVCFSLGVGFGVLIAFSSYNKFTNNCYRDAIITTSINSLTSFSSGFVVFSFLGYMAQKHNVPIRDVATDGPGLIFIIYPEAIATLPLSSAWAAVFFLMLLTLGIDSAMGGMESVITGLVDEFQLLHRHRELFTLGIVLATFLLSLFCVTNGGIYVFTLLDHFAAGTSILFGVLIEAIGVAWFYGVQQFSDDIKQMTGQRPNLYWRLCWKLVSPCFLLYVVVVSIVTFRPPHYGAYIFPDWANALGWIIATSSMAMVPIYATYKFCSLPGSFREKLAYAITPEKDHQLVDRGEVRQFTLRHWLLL"}, "[2]": {"target": "Sodium-dependent serotonin transporter (Rattus norvegicus, UniProt P31652)", "sequence (P31652 whole entry)": "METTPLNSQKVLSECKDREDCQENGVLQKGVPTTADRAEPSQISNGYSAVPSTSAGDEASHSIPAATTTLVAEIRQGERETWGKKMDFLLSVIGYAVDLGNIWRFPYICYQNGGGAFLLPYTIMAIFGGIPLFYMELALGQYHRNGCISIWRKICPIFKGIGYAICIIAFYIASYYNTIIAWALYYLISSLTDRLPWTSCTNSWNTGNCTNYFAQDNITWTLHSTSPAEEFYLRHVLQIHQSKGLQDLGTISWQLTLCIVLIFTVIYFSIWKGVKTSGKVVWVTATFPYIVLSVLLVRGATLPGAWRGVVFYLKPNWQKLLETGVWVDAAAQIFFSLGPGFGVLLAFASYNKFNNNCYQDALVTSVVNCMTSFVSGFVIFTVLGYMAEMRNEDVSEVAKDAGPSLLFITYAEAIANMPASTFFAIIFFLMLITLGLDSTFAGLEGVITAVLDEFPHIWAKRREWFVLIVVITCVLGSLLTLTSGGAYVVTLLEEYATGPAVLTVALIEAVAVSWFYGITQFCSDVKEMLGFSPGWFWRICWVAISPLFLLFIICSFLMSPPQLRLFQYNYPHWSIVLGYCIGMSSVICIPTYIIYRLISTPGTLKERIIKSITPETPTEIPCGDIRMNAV"}, "[3]": {"target": "5-hydroxytryptamine receptor 2B (Homo sapiens, UniProt P41595)", "sequence (P41595 whole entry)": "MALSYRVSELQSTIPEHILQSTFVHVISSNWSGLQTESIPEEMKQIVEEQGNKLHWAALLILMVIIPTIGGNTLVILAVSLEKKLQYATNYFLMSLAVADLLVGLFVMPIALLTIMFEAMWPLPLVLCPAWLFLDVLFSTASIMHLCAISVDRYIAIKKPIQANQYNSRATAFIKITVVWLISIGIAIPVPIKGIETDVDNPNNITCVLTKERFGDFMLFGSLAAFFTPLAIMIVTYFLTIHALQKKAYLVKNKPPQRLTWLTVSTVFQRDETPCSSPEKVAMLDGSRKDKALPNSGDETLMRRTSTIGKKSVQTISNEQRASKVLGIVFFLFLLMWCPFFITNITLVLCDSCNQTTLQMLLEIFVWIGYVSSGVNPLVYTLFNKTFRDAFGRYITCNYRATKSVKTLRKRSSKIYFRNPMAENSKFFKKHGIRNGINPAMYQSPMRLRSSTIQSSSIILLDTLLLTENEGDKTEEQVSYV"}, "[4]": {"target": "Norepinephrine transporter (Rattus norvegicus, UniProt Q9JIA2)"}, "D(3) dopamine receptor": {"target": "D(3) dopamine receptor (Homo sapiens, UniProt P35462)"}, "[5]": {"target": "5-hydroxytryptamine receptor 1A (Homo sapiens, UniProt P08908)"}, "[6]": {"target": "5-hydroxytryptamine receptor 6 (Homo sapiens, UniProt P50406)"}, "[7]": {"target": "Sodium-dependent dopamine transporter (Homo sapiens, UniProt Q01959)", "sequence (Q01959 whole entry)": "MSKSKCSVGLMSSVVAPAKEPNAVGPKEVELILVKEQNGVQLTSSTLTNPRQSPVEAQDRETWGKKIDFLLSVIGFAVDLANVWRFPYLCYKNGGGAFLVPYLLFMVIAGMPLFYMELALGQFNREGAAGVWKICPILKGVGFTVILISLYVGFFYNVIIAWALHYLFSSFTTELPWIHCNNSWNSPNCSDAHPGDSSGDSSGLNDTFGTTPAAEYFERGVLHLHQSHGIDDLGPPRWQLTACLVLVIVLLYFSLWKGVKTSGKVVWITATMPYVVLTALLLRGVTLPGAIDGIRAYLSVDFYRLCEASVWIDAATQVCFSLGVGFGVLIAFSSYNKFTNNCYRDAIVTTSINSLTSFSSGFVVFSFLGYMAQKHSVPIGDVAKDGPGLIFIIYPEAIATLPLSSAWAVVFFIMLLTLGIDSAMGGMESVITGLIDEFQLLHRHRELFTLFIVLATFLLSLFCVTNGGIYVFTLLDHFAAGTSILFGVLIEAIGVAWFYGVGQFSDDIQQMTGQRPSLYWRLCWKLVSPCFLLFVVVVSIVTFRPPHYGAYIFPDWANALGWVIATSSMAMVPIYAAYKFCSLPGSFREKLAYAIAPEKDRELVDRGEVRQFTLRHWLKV"}, "[8]": {"target": "Sodium-dependent noradrenaline transporter (Homo sapiens, UniProt P23975)"}, "Histamine H1 receptor": {"target": "Histamine H1 receptor (Homo sapiens, UniProt P35367)"}, "[9]": {"target": "Gamma-aminobutyric acid (GABA) B receptor 1 (Rattus norvegicus, UniProt Q6MFX8)"}, "Cannabinoid receptor 1": {"target": "Cannabinoid receptor 1 (Rattus norvegicus, UniProt P20272)"}, "[10]": {"target": "5-hydroxytryptamine receptor 1B (Homo sapiens, UniProt P28222)"}, "[11]": {"target": "5-hydroxytryptamine receptor 1D (Homo sapiens, UniProt P28221)"}, "[12]": {"target": "5-hydroxytryptamine receptor 7 (Homo sapiens, UniProt P34969)"}, "[13]": {"target": "Beta-1 adrenergic receptor (Rattus norvegicus, UniProt P18090)"}, "D(2) dopamine receptor": {"target": "D(2) dopamine receptor (Homo sapiens, UniProt P14416)"}, "[14]": {"target": "Alpha-1A adrenergic receptor (Homo sapiens, UniProt P35348)"}, "[15]": {"target": "Prostaglandin E2 receptor EP4 subtype (Homo sapiens, UniProt P35408)"}, "D(1A) dopamine receptor": {"target": "D(1A) dopamine receptor (Homo sapiens, UniProt P21728)", "sequence (P21728 whole entry)": "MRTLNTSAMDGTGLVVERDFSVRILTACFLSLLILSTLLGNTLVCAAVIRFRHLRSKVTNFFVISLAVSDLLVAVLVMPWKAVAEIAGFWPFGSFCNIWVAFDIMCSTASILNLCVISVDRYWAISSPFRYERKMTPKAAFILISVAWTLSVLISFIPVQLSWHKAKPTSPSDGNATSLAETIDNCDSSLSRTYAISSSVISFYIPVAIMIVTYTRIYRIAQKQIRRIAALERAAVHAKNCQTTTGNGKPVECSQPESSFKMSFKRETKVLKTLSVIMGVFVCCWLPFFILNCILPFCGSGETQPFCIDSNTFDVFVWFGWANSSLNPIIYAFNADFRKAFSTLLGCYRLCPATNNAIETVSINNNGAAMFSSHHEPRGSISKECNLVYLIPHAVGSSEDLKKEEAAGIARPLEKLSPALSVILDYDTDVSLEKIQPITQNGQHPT"}, "[16]": {"target": "5-hydroxytryptamine receptor 5A (Homo sapiens, UniProt P47898)", "sequence (P47898 whole entry)": "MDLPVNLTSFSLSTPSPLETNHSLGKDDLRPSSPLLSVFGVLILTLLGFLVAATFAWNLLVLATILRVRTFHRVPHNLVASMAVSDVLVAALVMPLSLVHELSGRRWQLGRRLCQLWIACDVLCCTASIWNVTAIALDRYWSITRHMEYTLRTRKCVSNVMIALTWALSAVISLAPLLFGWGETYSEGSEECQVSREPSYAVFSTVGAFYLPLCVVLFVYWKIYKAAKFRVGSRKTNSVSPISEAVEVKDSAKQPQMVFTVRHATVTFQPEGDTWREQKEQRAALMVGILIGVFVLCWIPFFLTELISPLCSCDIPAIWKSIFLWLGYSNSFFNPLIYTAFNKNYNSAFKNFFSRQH"}, "[17]": {"target": "Prostaglandin E2 receptor EP3 subtype (Homo sapiens, UniProt P43115)"}, "[18]": {"target": "5-hydroxytryptamine receptor 2C (Rattus norvegicus, UniProt P08909)"}, "D(1B) dopamine receptor": {"target": "D(1B) dopamine receptor (Homo sapiens, UniProt P21918)", "sequence (P21918 whole entry)": "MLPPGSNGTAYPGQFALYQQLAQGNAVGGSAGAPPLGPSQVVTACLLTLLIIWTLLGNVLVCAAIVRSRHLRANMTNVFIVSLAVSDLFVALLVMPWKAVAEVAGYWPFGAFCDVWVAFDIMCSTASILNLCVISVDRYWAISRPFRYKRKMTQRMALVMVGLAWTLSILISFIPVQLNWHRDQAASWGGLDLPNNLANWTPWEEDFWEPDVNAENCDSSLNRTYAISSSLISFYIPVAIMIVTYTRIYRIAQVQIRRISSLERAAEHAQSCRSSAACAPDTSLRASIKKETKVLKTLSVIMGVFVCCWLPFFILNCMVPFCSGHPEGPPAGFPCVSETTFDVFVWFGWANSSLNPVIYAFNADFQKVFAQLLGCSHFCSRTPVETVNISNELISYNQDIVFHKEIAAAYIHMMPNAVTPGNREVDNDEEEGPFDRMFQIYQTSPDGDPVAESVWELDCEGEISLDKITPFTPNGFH"}, "[19]": {"target": "Metabotropic glutamate receptor 4 (Rattus norvegicus, UniProt P31423)"}, "[20]": {"target": "Metabotropic glutamate receptor 8 (Rattus norvegicus, UniProt P70579)", "sequence (P70579 whole entry)": "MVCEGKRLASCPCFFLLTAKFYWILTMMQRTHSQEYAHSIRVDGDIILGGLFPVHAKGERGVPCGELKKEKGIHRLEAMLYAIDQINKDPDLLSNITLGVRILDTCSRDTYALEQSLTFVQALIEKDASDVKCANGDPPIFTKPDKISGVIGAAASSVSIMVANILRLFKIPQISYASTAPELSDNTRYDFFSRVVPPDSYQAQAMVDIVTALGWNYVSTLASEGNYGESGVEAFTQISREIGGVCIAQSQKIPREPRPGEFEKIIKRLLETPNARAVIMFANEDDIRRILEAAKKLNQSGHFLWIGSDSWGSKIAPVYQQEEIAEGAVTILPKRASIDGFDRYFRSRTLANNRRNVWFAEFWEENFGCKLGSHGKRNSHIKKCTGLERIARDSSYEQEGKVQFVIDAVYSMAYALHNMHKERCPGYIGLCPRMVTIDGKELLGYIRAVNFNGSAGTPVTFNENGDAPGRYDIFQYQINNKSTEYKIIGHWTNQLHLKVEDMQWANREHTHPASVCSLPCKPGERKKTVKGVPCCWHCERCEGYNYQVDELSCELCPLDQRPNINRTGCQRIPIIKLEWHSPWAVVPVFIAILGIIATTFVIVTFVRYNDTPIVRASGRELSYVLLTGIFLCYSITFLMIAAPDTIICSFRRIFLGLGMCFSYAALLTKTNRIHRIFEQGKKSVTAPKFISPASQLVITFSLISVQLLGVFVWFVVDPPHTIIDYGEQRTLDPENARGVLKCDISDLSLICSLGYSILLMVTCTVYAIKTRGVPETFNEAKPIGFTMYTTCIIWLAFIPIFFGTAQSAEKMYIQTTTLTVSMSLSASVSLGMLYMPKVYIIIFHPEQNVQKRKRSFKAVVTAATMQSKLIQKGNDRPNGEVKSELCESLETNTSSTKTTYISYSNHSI"}, "[21]": {"target": "Metabotropic glutamate receptor 2 (Homo sapiens, UniProt Q14416)"}, "[22]": {"target": "Alpha-2C adrenergic receptor (Homo sapiens, UniProt P18825)"}, "[23]": {"target": "Muscarinic acetylcholine receptor M2 (Homo sapiens, UniProt P08172)"}, "[24]": {"target": "Acetylcholine receptor subunit alpha (Homo sapiens, UniProt P02708)"}, "[25]": {"target": "Muscarinic acetylcholine receptor M1 (Homo sapiens, UniProt P11229)"}, "[26]": {"target": "Gamma-aminobutyric acid receptor subunit alpha-1 (Rattus norvegicus, UniProt P62813)"}, "[27]": {"target": "Voltage-dependent L-type calcium channel subunit alpha-1C (Rattus norvegicus, UniProt P22002)"}, "[28]": {"target": "Muscarinic acetylcholine receptor M4 (Homo sapiens, UniProt P08173)", "sequence (P08173 whole entry)": "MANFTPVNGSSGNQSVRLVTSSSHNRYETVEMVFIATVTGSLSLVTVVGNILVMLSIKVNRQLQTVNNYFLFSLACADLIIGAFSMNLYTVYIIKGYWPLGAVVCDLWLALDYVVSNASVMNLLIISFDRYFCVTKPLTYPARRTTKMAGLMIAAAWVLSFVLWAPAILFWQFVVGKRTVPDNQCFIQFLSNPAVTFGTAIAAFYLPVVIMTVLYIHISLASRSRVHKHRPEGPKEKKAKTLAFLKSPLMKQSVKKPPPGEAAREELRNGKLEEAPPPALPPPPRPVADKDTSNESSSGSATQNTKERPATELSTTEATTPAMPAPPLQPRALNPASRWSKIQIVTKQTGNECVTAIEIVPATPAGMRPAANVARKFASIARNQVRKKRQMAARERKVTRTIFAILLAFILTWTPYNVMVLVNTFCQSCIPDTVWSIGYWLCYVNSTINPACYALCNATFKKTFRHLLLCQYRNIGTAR"}, "[29]": {"target": "Neuronal acetylcholine receptor subunit alpha-3 (Homo sapiens, UniProt P32297)"}, "D(4) dopamine receptor": {"target": "D(4) dopamine receptor (Rattus norvegicus, UniProt P30729)"}, "[30]": {"target": "Glutamate receptor ionotropic, NMDA 1 (Rattus norvegicus, UniProt P35439)"}, "[31]": {"target": "Metabotropic glutamate receptor 1 (Rattus norvegicus, UniProt P23385)"}, "[32]": {"target": "Muscarinic acetylcholine receptor M5 (Homo sapiens, UniProt P08912)"}, "[33]": {"target": "Beta-2 adrenergic receptor (Rattus norvegicus, UniProt P10608)"}, "[34]": {"target": "Alpha-2A adrenergic receptor (Homo sapiens, UniProt P08913)"}},
  "note": "“And” between values parts separate entries of the source, which are not always exact repeats. Equal values may be shown once.",
  "data": [
    {"compound": "CC(N)Cc1cccc(C(F)(F)F)c1", "note": "(stereo unspecified) [NSC_15897]", "values": [
      {"measurement": "Ki", "setting": "[1]", "result": 1900, "unit": "nM"},
      {"measurement": "Ki", "setting": "[2]", "result": 104, "unit": "nM"},
      {"measurement": "Ki", "setting": "[3]", "result": "15 nM and 60 nM"},
      {"measurement": "Ki", "setting": "[4]", "result": 170, "unit": "nM"}
    ]},
    {"compound": "C[C@@H](N)Cc1ccc2c(c1)OCO2", "note": "[NSC_3046161]", "values": [
      {"measurement": "Ki", "setting": "[1]", "result": 900, "unit": "nM"},
      {"measurement": "Ki", "setting": "[2]", "result": 310, "unit": "nM"},
      {"measurement": "Ki", "setting": "[3]", "result": 150, "unit": "nM"},
      {"measurement": "Ki", "setting": "[4]", "result": 290, "unit": "nM"}
    ]},
    {"compound": "CCCN1CC(CSC)CC2c3cccc4[nH]cc(c34)CC21", "note": "(stereo unspecified) [CAS_66104-22-1]", "values": [
      {"measurement": "Ki", "setting": "[3]", "result": "14 nM and 53 nM"}
    ]},
    {"compound": "CN[C@H](C)Cc1ccc2c(c1)OCO2", "note": "[NSC_126235]", "values": [
      {"measurement": "Ki", "setting": "[1]", "result": 142, "unit": "nM"},
      {"measurement": "Ki", "setting": "[2]", "result": 74, "unit": "nM"},
      {"measurement": "Ki", "setting": "[3]", "result": 6000, "unit": "nM"},
      {"measurement": "Ki", "setting": "[4]", "result": 136, "unit": "nM"}
    ]},
    {"compound": "CCC(CO)NC(=O)C1C=C2c3cccc4[nH]cc(c34)CC2N(C)C1", "note": "(stereo unspecified) [NSC_8226]", "values": [
      {"measurement": "Ki", "setting": "[3]", "result": 0.8, "unit": "nM"}
    ]},
    {"compound": "NCCc1c[nH]c2ccc(O)cc12", "note": "[[3H]-5-HT]", "values": [
      {"measurement": "Ki", "setting": "[1]", "result": "> 10000", "unit": "nM"},
      {"measurement": "Ki", "setting": "[4]", "result": "> 10000", "unit": "nM"}
    ]},
    {"compound": "CN1CC(C(=O)NC2(C)OC3(O)C4CCCN4C(=O)C(Cc4ccccc4)N3C2=O)CC2c3cccc4[nH]cc(c34)CC21", "note": "(stereo unspecified) [NSC_3066]", "values": [
      {"measurement": "Ki", "setting": "[3]", "result": "15.2 nM and 30 nM"}
    ]},
    {"compound": "CN[C@@H](C)Cc1ccc2c(c1)OCO2", "note": "[DL-(3,4-Methylenedioxy)methamphetamine]", "values": [
      {"measurement": "Ki", "setting": "D(3) dopamine receptor", "result": "> 10", "unit": "µM"},
      {"measurement": "Ki", "setting": "[5]", "result": "> 10", "unit": "µM"},
      {"measurement": "Ki", "setting": "[6]", "result": "> 10", "unit": "µM"},
      {"measurement": "Ki", "setting": "[1]", "result": 278, "unit": "nM"},
      {"measurement": "Ki", "setting": "[2]", "result": 72, "unit": "nM"},
      {"measurement": "Ki", "setting": "[7]", "result": "> 10", "unit": "µM"},
      {"measurement": "Ki", "setting": "[8]", "result": "> 10", "unit": "µM"},
      {"measurement": "Ki", "setting": "Histamine H1 receptor", "result": 2140, "unit": "nM"},
      {"measurement": "Ki", "setting": "[9]", "result": "> 10", "unit": "µM"},
      {"measurement": "Ki", "setting": "Cannabinoid receptor 1", "result": "> 10", "unit": "µM"},
      {"measurement": "Ki", "setting": "[10]", "result": "> 10", "unit": "µM"},
      {"measurement": "Ki", "setting": "[11]", "result": "> 10", "unit": "µM"},
      {"measurement": "Ki", "setting": "[3]", "result": "500 nM and 2000 nM"},
      {"measurement": "Ki", "setting": "[12]", "result": "> 10", "unit": "µM"},
      {"measurement": "Ki", "setting": "[13]", "result": "> 10", "unit": "µM"},
      {"measurement": "Ki", "setting": "D(2) dopamine receptor", "result": "> 10", "unit": "µM"},
      {"measurement": "Ki", "setting": "[14]", "result": "> 10", "unit": "µM"},
      {"measurement": "Ki", "setting": "[15]", "result": "> 10", "unit": "µM"},
      {"measurement": "Ki", "setting": "D(1A) dopamine receptor", "result": "> 10", "unit": "µM"},
      {"measurement": "Ki", "setting": "[16]", "result": "> 10", "unit": "µM"},
      {"measurement": "Ki", "setting": "[17]", "result": "> 10", "unit": "µM"},
      {"measurement": "Ki", "setting": "[18]", "result": "> 10", "unit": "µM"},
      {"measurement": "Ki", "setting": "D(1B) dopamine receptor", "result": "> 10", "unit": "µM"},
      {"measurement": "Ki", "setting": "[19]", "result": "> 10", "unit": "µM"},
      {"measurement": "Ki", "setting": "[20]", "result": "> 10", "unit": "µM"},
      {"measurement": "Ki", "setting": "[21]", "result": "> 10", "unit": "µM"},
      {"measurement": "Ki", "setting": "[22]", "result": 1120, "unit": "nM"},
      {"measurement": "Ki", "setting": "[23]", "result": "> 10", "unit": "µM"},
      {"measurement": "Ki", "setting": "[24]", "result": "> 10", "unit": "µM"},
      {"measurement": "Ki", "setting": "[25]", "result": "> 10", "unit": "µM"},
      {"measurement": "Ki", "setting": "[26]", "result": "> 10", "unit": "µM"},
      {"measurement": "Ki", "setting": "[27]", "result": 1200, "unit": "nM"},
      {"measurement": "Ki", "setting": "[28]", "result": 8.25, "unit": "µM"},
      {"measurement": "Ki", "setting": "[29]", "result": "> 10", "unit": "µM"},
      {"measurement": "Ki", "setting": "D(4) dopamine receptor", "result": "> 10", "unit": "µM"},
      {"measurement": "Ki", "setting": "[30]", "result": "> 10", "unit": "µM"},
      {"measurement": "Ki", "setting": "[31]", "result": "> 10", "unit": "µM"},
      {"measurement": "Ki", "setting": "[4]", "result": 110, "unit": "nM"},
      {"measurement": "Ki", "setting": "[32]", "result": 6.34, "unit": "µM"},
      {"measurement": "Ki", "setting": "[33]", "result": "> 10", "unit": "µM"},
      {"measurement": "Ki", "setting": "[34]", "result": 2530, "unit": "nM"}
    ]},
    {"compound": "C[C@H](N)Cc1ccc2c(c1)OCO2", "note": "[NSC_3050061]", "values": [
      {"measurement": "Ki", "setting": "[1]", "result": 98, "unit": "nM"},
      {"measurement": "Ki", "setting": "[2]", "result": 100, "unit": "nM"},
      {"measurement": "Ki", "setting": "[3]", "result": 100, "unit": "nM"},
      {"measurement": "Ki", "setting": "[4]", "result": 50, "unit": "nM"}
    ]},
    {"compound": "CC(N)Cc1ccc2c(c1)OCO2", "note": "(stereo unspecified)", "values": [
      {"measurement": "Ki", "setting": "[1]", "result": 190, "unit": "nM"},
      {"measurement": "Ki", "setting": "[2]", "result": 160, "unit": "nM"},
      {"measurement": "Ki", "setting": "[3]", "result": "100 nM and 190 nM"},
      {"measurement": "Ki", "setting": "[4]", "result": 108, "unit": "nM"}
    ]},
    {"compound": "CN[C@@H](C)Cc1ccc2c(c1)OCO2", "note": "[MDMA, R(-)]", "values": [
      {"measurement": "Ki", "setting": "[1]", "result": 3700, "unit": "nM"},
      {"measurement": "Ki", "setting": "[2]", "result": 340, "unit": "nM"},
      {"measurement": "Ki", "setting": "[3]", "result": 900, "unit": "nM"},
      {"measurement": "Ki", "setting": "[4]", "result": 560, "unit": "nM"}
    ]},
    {"compound": "CCNC(C)Cc1cccc(C(F)(F)F)c1", "note": "(stereo unspecified) [NSC_3337]", "values": [
      {"measurement": "Ki", "setting": "[1]", "result": "> 10000", "unit": "nM"}
    ]}
  ]
}
